Where two headings read alike, the source gives them in different places.
Tests used:
[1] = test system: healthy volunteers; conditions: in vivo
Text: 3 cohorts of subjects, in total 34 healthy adult volunteers, were recruited for Part A study.
Part B was an open label non-randomized crossover in a cohort of 6 evaluable healthy adult volunteers.
Adverse events were monitored and recorded.

[2] = test system: healthy volunteers; experiment: Phase 1 study: lung spirometry tests; type: in vivo, human
Experimental: Pulmonary safety was assessed by performing lung spirometry tests and measuring peripheral oxygen saturation (SpO2%) prior to dosing and at various times after completion of the inhalation. Lung spirometry tests evaluated all lung function parameters, including forced vital capacity (FVC), forced expiratory volume in 1 second (FEV1), peak expiratory flow (PEF), and forced expiratory flow at 25% and 75% intervals (FEF25-75). Auscultation and respiration rate were also measured prior to dosing and at various times after inhalation. Chest x-rays were performed on subjects before and after flecainide inhalation.

[3] = test system: healthy volunteers; experiment: Phase 1 study: ECG pharmacodynamics (QRS, PR, QTcF, T-wave) and PK-PD; type: in vivo, human
Experimental: The ECG recordings included: 1) Continuous real-time ECG telemetry for observation of patient safety starting at 12 hours pre-dose and continuing for 12 hours post-dose, 2) 12-lead ECGs for immediate review by medical staff to ascertain the safety of the procedures and drug administration were recorded at pre-specified (or any time as needed) before dosing (pre-dose) and after dosing (post-dose), and 3) continuous 12-lead ECG (cECG, iCardiac Holter monitoring) was recorded for 24 hours, starting 1 hour prior to dosing and up to 24 hours post dosing.
As expected from non-steady state conditions, and shown in FIGS. 84A and 84B, a temporal dissociation is observed between ([Flec]plasma) and ΔQRS. […] The hysteresis between concentrations and responses (QRS) applies for both routes of administration, IV and inhalation.

[4] = test system: anesthetized Yorkshire pigs; experiment: PD responses (HR, MAP, ECG intervals) in anesthetized Yorkshire pigs, IV vs IT; type: in vivo
Experimental: All catheters were positioned under fluoroscopic guidance. […] Data are reported as means+ SEM. Statistical analyses were performed using the SAS system (9.4) to apply ANOVA with a post-hoc Dunnett's test. Statistical significance was assumed at p<0.05.

[5] = physchem; conditions: water

O=C(NCC1CCCCN1)c1cc(OCC(F)(F)F)ccc1OCC(F)(F)F (centres unmarked) [flecainide, flecainide acetate]
study-drug related dizziness ([1]; human, iv): 6 events in 6 subjects
study-drug related headache ([1]; human, iv): 5 events in 5 subjects
study-drug related peripheral coldness, palpitations, and chest discomfort ([1]; human, iv): each occurring 2 times 1 subject
Number of Moderate or Severe TEAEs ([1]; human, iv, 2 mg/kg): 4
Number of Related TEAEs ([1]; human, iv, 2 mg/kg): 35
Number of Related, Moderate or Severe TEAEs ([1]; human, iv, 2 mg/kg): 4
Number of SAEs ([1]; human, iv, 2 mg/kg): 0
Number of Subjects with at least one Moderate or Severe TEAE ([1]; human, iv, 2 mg/kg): 2 subjects (29%) n (%)
Number of Subjects with at least one TEAE ([1]; human, iv, 2 mg/kg): 7 (100) n (%)
Number of Treatment-Emergent Adverse Events ([1]; human, iv, 2 mg/kg): 49
TEAE: Chest discomfort ([1]; human, iv, 2 mg/kg): 3 such events also occurred in 1 subject n (%) [events]
TEAE: Dizziness ([1]; human, iv, 2 mg/kg): 6 events in 6/7 subjects, 86% n (%) [events]
TEAE: Headache ([1]; human, iv, 2 mg/kg): 6 events in 5/7 subjects, 71% n (%) [events]
remaining study-drug related events (cough, dysphonia, dyspnoea, oral hypoesthesia, chest discomfort) ([1]; human, po): once in 1 subject each
serious adverse events [1]: No serious adverse events were reported
tolerability [1]: well tolerated
Number of SAEs ([1]; iv, 2 mg/kg): no SAEs reported
FEF25-75, Mean ([2]; 20 mg eTLD, 24 hours Post-dose): 5.40 L/s
FEF25-75, Mean ([2]; 40 mg eTLD, 12 hours Pre-dose): 5.00 L/s
FEF25-75, Mean ([2]; 40 mg eTLD, 24 hours Post-dose): 4.80 L/s
standard lung spirometry measurements (FEV1, PEF, FVC, FEF 25-75) and peripheral O2 saturation ([2]; Cohorts 1, 2, 3 and 5): normal before and after
pH of solution in water (2.6 mg/mL): 5.0
appearance of solution (distilled water, diltiazem hydrochloride 50 mg/ml, flecainide acetate 30 mg/ml): clear with no visible particulate matter
QRS interval duration ([3]; 30 min after completion of inhalation, Cohorts 1-3): returned to near pre-dose levels
T-wave morphology ([3]; IV infusion 2 mg/kg): T-wave notching
non-specific intraventricular conduction delay ([3]; IV infusion 2 mg/kg): 3 of 6 subjects
smaller changes in QRS interval duration, inhalation vs IV infusion ([3]; eTLD 30 mg vs ˜150 mg IV): 2.7 fold
lower plasma concentration by inhalation for QRS prolongation as after IV (6.2/2.7) ([3]; in vivo, iv): 2.3 fold
T-wave morphology ([3]; inhalation 20, 30 and 40 mg eTLD): No changes in T-wave morphology
lower plasma level after inhalation at near-equal ΔQRS ([3]; inhalation vs IV): 2.6 fold
mean ΔQRS ([3]; inhaled 20 mg eTLD, between 1 and 3 minutes after end of inhalation): small increase of mean ΔQRS
PR interval duration prolonged from start of inhalation ([3]; inhaled 30 mg eTLD, 5 min after completion of inhalation): 12 ms
QRS duration ([3]; inhaled 40 mg eTLD, Cohort 2): transient increase between 1 and 3 minutes post-dosing
changes of the PR interval duration ([3]; inhaled 20 or 40 mg eTLD): Minimal or no changes
non-specific intraventricular conduction delay ([3]; oral inhalation eTLD of 30 mg): not observed in any of the same subjects
decrease of R-wave amplitude (QRSa) ([3]; subject R222, 40 mg eTLD, 3 min post-dosing): 400 μV
increase of QRS duration (QRSd) ([3]; subject R222, inhaled 40 mg eTLD, 1 minute post-dosing): 10 ms
mean arterial pressure ([4]; IT 0.75 mg/kg, baseline 111±3.6 mmHg, p=0.9112): not significantly altered
heart rate ([4]; IT 0.75 mg/kg, baseline 111±6.4 bpm, p=0.9970): not significantly altered
PR interval ([4]; IT 0.75 mg/kg, baseline 130±5.3 ms, p=0.9351): not significantly changed
JTc interval ([4]; IT 0.75 mg/kg, baseline 354±12.0 ms, p=0.7605): not significantly changed
QTc interval ([4]; IT 0.75 mg/kg, baseline 435±12.9 ms, p=0.5505): not significantly changed
mean arterial pressure ([4]; IT 1.5 mg/kg, baseline 108±9.4 mmHg, p=0.9894): not significantly altered
heart rate ([4]; IT 1.5 mg/kg, baseline 118±13.2 bpm, p=0.9999): not significantly altered
PR interval ([4]; IT 1.5 mg/kg, baseline 127±2.3 ms, p=0.0819): not significantly changed
JTc interval ([4]; IT 1.5 mg/kg, baseline 364±11.5 ms, p=0.9968): not significantly changed
QTc interval ([4]; IT 1.5 mg/kg, baseline 436±7.1 ms, p=0.1510): not significantly changed
heart rate ([4]; IV 2 mg/kg, baseline 103±1.9 bpm, ANOVA p=0.9936, 30 min): not significantly altered
mean arterial pressure ([4]; IV 2 mg/kg, baseline 105±6.7 mmHg, p=0.8852): not significantly altered
PR interval ([4]; IV 2 mg/kg, baseline 127±7.8 ms, p=0.5161): not significantly changed
JTc interval ([4]; IV 2 mg/kg, baseline 367±7.4 ms, p=0.9686): not significantly changed
QTc interval ([4]; IV 2 mg/kg, baseline 442±7.9 ms, p=0.35): not significantly changed
solubility [5]: ~30 mg/mL
